According to patent US10407399B2, “Ion-activated photolabile compounds” (HOWARD HUGHES MEDICAL INSTITUTE, priority 2015, dated 2019):
Where “and” joins values, the source holds several entries; their conditions need not be identical. Identical values can stand only once. Values belong to the molecule of their own block, whether it stands above or below them.

Legend:
[1] = Absorption spectrum in buffers containing varying [Ca^2+]; assay type: physicochemical
Excerpt: The absorption spectrum of 402 was first examined in buffers containing varying [Ca^2+] (FIG. 19A). […] A small (<5%) but significant increase in absorption around 350 nm was also observed when calcium ion concentration is raised. However, the coumarin moiety dominates absorption in the UV with an extinction coefficient (e)=2.4×10^4 M^−1 cm^−1 at 350 nm. These absorbance changes indicate that chelation of calcium causes a switch from the colored quinoid form to the UV-absorbing aromatic form (FIG. 3).
(§1) All measurements were taken at ambient temperature (23±2° C.). […] Spectroscopy was performed using 1-cm path length quartz or polymethacrylate cuvettes (Starna or Fisher). Absorption measurements were recorded on a Cary Model 100 spectrometer (Varian). Fluorescence measurements spectra were recorded on a Cary Eclipse fluorometer (Varian). Buffer pH was adjusted with KOH. Curve fitting was accomplished with GraphPad Prism 5.

[2] = Determination of photochemical quantum yield (365 nm irradiation, fluorescence of released fluorophore); assay type: physicochemical; settings: for photochemical quantum yield (Φ) in the presence of Ca^2+: 10 mM CaCl2, 30 mM MOPS pH 7.2, 100 mM KCl; for photochemical quantum yield (Φ) in the presence of Ca^2+ / photochemical quantum yield (Φ) in the absence of Ca^2+: 365 nm; for photochemical quantum yield (Φ) in the absence of Ca^2+: 10 mM EGTA, 30 mM MOPS pH 7.2, 100 mM KCl; for enhancement in photochemical quantum yield upon Ca^2+ binding: presence vs absence of Ca^2+
Experimental: as §1
Photochemistry was performed in 1-cm path length/3.5 mL quartz cuvettes (Starna) in a Luzchem LZC 4V photoreactor equipped with 365 nm UV lamps, a carousel, and a timer. The irradiation was determined by potassium ferrioxalate actinometry.^3 A solution of 60 mM K3Fe(C2O4)3 was irradiated using the photoreactor setup. Released Fe^2+ was determined by complexometry with 1,10 phenanthroline. Using the known photochemical quantum yield of this process, we determined the photon flux (I)=[…]. Samples (10 μM, 3.5 mL) were irradiated in either zero calcium buffer (30 mM MOPS pH 7.2, 10 mM EGTA, 100 mM KCl) or calcium-containing buffer (30 mM MOPS pH 7.2, 10 mM CaCl2, 100 mM KCl) and a small aliquot (30 μL) was removed and diluted 100-fold in matching buffer. The fluorescence of these samples was then measured (coumarin 402: λex/λem=402/447 nm; Tokyo Green compound S13: λex/λem=496/520 nm). The quantum yield (Φ, mol/ein) was determined by fitting a plot of fluorescence vs. irradiation time to a one-phase association described by equation 1: Ft=Fmax−Fmax(e^−IσΦt) (1) where Fmax=maximal fluorescence, t=time (min), Ft=fluorescence at time t, I=irradiation (ein/min·cm^2), and σ=decadic extinction coefficient (cm^2/mol; 1000-fold higher than the value with units of M^−1 cm^−1 based on cuvette geometry). For compound 402 we determined Φ=4.8±0.2% (mean±SE) in the presence of 10 mM Ca^2+ and Φ=0.0079±0.0003% in the presence of 10 mM EGTA (FIG. 19B). For compound S13 we found Φ=1.63±0.05% in the presence of 10 mM Ca^2+ and Φ=0.0110±0.0004% in the presence of 10 mM EGTA (FIG. 20A).

[3] = system: cultured neurons; test: Light-gated integration of Ca^2+ evoked by electrical stimulation; assay type: cell-based, rat; settings: for rate k of increase in cellular fluorescence versus irradiation time: n=20
Experimental: The present compound was then utilized to measure calcium ion changes in neurons evoked by electrical activity. Low-affinity reversible Ca^2+ indicators are advantageous for use in biological systems as their low buffering capacity preserves native calcium ion dynamics. Nevertheless, poor signal-to-background ratios of such indicators may restricts their utility to subcellular compartments undergoing extremely high calcium flux (e.g., dendritic spines). […] Cells were incubated with AM ester 403 and subjected to the photoactivation imaging protocol. In one population of cells neuronal action potential firing was elicited by field stimulation at 80 Hz.
(§2) HEK293T/17 cells (ATCC) were cultured according to instructions in poly-D-lysine-coated 24-well CellBind plates (Corning) in Dulbecco's modified eagle medium (DMEM; Invitrogen) supplemented with 10% v/v fetal bovine serum (FBS; Invitrogen) and maintained at 37° C. in a humidified 5% CO2 v/v environment. Primary rat hippocampal neurons were prepared and cultured as described previously. Imaging buffer for HEK293T/17 cells consisted of Dulbecco's phosphate buffered saline (DPBS; Invitrogen). Imaging buffer for cultured neurons consisted of: 145 mM NaCl, 2.5 KCl, 10 mM glucose, 10 mM HEPES pH 7.4, 2 mM CaCl2, and 1 mM MgCl2. To load cells with the dosimeter, a stock solution of 403 (1 mM) in DMSO containing 10% w/v Pluronic F-127 (Sigma) was added to a final concentration of 10 μM in imaging buffer. Cells were incubated in this solution for 1 h at 37° C., after which the cells were washed with imaging buffer (3×) and imaged. The final imaging buffer wash for cultured neurons additionally contained pharmacological agents (10 μM CNQX, 10 μM (R)-CPP, 10 μM gabazine, and 1 mM (S)-MCPG; Tocris) to block spontaneous cellular activity.
(§3) Cells were imaged on a Olympus IX-81 microscope using a 10× or 20× objective and a DAPI filter set (Semrock DAPI-5060C-000; excitation: 352-402 nm, dichroic cutoff: 409 nm, emission: 417-477 nm) filtering a mercury arc lamp. Excitation/photoactivation light was attenuated using a neutral density filter giving a light intensity of 60 mW/cm^2. To raise intracellular calcium ion levels (FIGS. 19B, 21B, and 22B), cells were incubated with 10 μM ionomycin (Sigma) and 4 mM CaCl2 for 2 min prior to imaging.
Cultured neurons loaded with compound 403 were stimulated electrically to induce action potential firing at 80 Hz for one second prior to and during illumination with excitation/photoactivation light. A Grass S48 Stimulator (Grass Technologies) was used with a custom-built platinum wire field stimulation electrode.

[4] = system: cultured hippocampal neurons; test: Live cell photoactivation imaging of neurons with or without ionomycin; assay type: cell-based, rat; settings: for rate k of cellular fluorescence increase versus irradiation time: 10 μM, 1 h loading, 365 nm
Experimental: The utility of the embodied system was then observed in a cellular context. The hexa-acetoxymethyl (AM) ester 403 of compound 402 was prepared (FIG. 8). This membrane-permeant compound enabled loading of cultured hippocampal neurons with the light-gated chemodosimeter. The overlap of the photouncaging wavelength (λ=351 nm) and the excitation spectra (λmax=402 nm) of the coumarin allowed simultaneous imaging and activation with a single light source centered at 365 nm.
as §2, §3

[5] = Determination of Kd from fluorescence after photoactivation as a function of [Ca^2+]; assay type: binding; settings: methoxy replaced with pyrrolidine, versus 402; readout not stated
Experimental: as §1
For [Ca^2+]<40 μM, the free calcium concentration was controlled by a commercial EGTA buffer system (Invitrogen). […] For [Ca^2+]>40 μM, buffers were prepared with 1 mM EGTA and excess CaCl2 in 30 mM MOPS pH 7.2 and 100 mM KCl. Different buffer solutions containing 100 nM of 402 or S13 were irradiated in clean glass vials for 1 min using the photoreactor setup described above. The samples were then transferred to a black, clear bottom, 96-well polystyrene microplate with a nonbinding surface coating (Corning). Fluorescence was read from the bottom on a FlexStation3 fluorescence microplate reader (Molecular Devices; for coumarin 402: λex/λem=402/447 nm; for Tokyo Green compound S13: λex/λem=496/520 nm). The plot of fluorescence vs. [Ca^2+] was fit to one site-specific binding curve to determine the Kd. Found: 28.3±0.6 μM (±SE) for 402 and 28.0±0.8. μM for S13.

- increase in absorption around 350 nm when calcium ion concentration is raised [1]: < 5%
- visible absorption at 430 nm as [Ca^2+] increases [1]: dramatic decrease
- extinction coefficient ([1]; at 350 nm): 24000 M⁻¹ cm⁻¹
- photochemical quantum yield (Φ) in the presence of Ca^2+ [2]: 4.8% and 4.8±0.2%
- photochemical quantum yield (Φ) in the absence of Ca^2+ [2]: 0.008% and 0.0079±0.0003%
- enhancement in photochemical quantum yield upon Ca^2+ binding [2]: 600 fold
Structure (SMILES): COc1ccc(N(CC(=O)O)CC(=O)O)c(OCCOc2cc([N+](=O)[O-])c(COc3ccc4cc(C(=O)NC5CCC(N(CC(=O)O)CC(=O)O)CC5)c(=O)oc4c3)cc2N(CC(=O)O)CC(=O)O)c1 (stereo not shown) [compound 402, 2,2′((2-(2-(2-(Bis(carboxymethyl)amino)-4-(((3-(((1r,4r)-4-(bis(carboxymethyl)amino)cyclohexyl)carbamoyl)-2-oxo-2H-chromen-7-yl)oxy)methyl)-5-nitrophenoxy)ethoxy)-4-methoxyphenyl)azanediyl)diacetic acid]
- Ca^2+ dependence of uncaging photochemistry ([2]; fluorescence of released coumarin vs 365 nm irradiation time, 10 mM CaCl2 or 10 mM EGTA): efficient photochemistry was observed only in the presence of calcium

Structure (SMILES): COc1ccc(N(CC(=O)OCOC(C)=O)CC(=O)OCOC(C)=O)c(OCCOc2cc([N+](=O)[O-])c(COc3ccc4cc(C(=O)N[C@H]5CC[C@H](N(CC(=O)OCOC(C)=O)CC(=O)OCOC(C)=O)CC5)c(=O)oc4c3)cc2N(CC(=O)OCOC(C)=O)CC(=O)OCOC(C)=O)c1 [compound 403, Bis(acetoxymethyl) 2,2′-((2-(2-(2-(bis(2-(acetoxymethoxy)-2-oxoethyl)amino)-4-(((3-(((1r,4r)-4-(bis(2-(acetoxymethoxy)-2-oxoethyl)amino)cyclohexyl)carbamoyl)-2-oxo-2H-chromen-7-yl)oxy)methyl)-5-nitrophenoxy)ethoxy)-4-methoxyphenyl)azanediyl)diacetate]
- permanent increase in cellular fluorescence ([3]; field stimulation at 80 Hz): 200%
- rate increase in cellular fluorescence relative to unstimulated cells ([3]; field stimulation at 80 Hz): 4 fold
- rate k of increase in cellular fluorescence versus irradiation time ([3]; with field stimulation at 80 Hz): 0.133 s⁻¹
- rate k of increase in cellular fluorescence versus irradiation time ([3]; without electrical stimulation): 0.0325 s⁻¹
- increase in the accumulation of cellular fluorescence ([4]; cells pretreated with ionomycin vs control cells): 40 fold
- fluorescence increase on illumination of control cells ([4]; control cells without ionomycin): did not elicit significant fluorescence increase
- rate k of cellular fluorescence increase versus irradiation time ([4]; ionomycin-treated neurons): 0.240 s⁻¹
- rate k of cellular fluorescence increase versus irradiation time ([4]; untreated neurons): 0.0060 s⁻¹

- photochemical quantum yield (Φ) in the presence of Ca^2+ [2]: 1.6% and 1.63±0.05%
- photochemical quantum yield (Φ) in the absence of Ca^2+ [2]: 0.011% and 0.0110±0.0004%
- enhancement in photochemical quantum yield upon Ca^2+ binding [2]: 150 fold
Structure (SMILES): COc1ccc(-c2c3ccc(=O)cc-3oc3cc(OCc4cc(N(CC(=O)O)CC(=O)O)c(OCCOc5cc(OC)ccc5N(CC(=O)O)CC(=O)O)cc4[N+](=O)[O-])ccc23)c(C)c1 [compound S13, 2,2′-((2-(2-(2-(Bis(carboxymethyl)amino)-4-(((9-(4-methoxy-2-methylphenyl)-3-oxo-3H-xanthen-6-yl)oxy)methyl)-5-nitrophenoxy)ethoxy)-4-methoxyphenyl)azanediyl)diacetic acid]

- effect of the modification on calcium affinity [5]: did not increase
Structure (SMILES): O=C(O)CN(CC(=O)O)c1ccc(N2CCCC2)cc1OCCOc1cc([N+](=O)[O-])c(COc2ccc3cc(C(=O)NC4CCC(N(CC(=O)O)CC(=O)O)CC4)c(=O)oc3c2)cc1N(CC(=O)O)CC(=O)O (stereo not shown) [compound of FIG. 14, where R═H, 2,2′-((2-(2-(2-(Bis(carboxymethyl)amino)-4-(((3-(((1r,4r)-4-(bis(carboxymethyl)amino)cyclohexyl)carbamoyl)-2-oxo-2H-chromen-7-yl)oxy)methyl)-5-nitrophenoxy)ethoxy)-4-(pyrrolidin-1-yl)phenyl)azanediyl)diacetic acid]
